# Measurements reported in patent US20060276412A1, “METHODS AND COMPOSITIONS FOR MANAGING PSYCHOTIC DISORDERS” (priority 2005, published 2006).
# Values joined by “and” are separate entries in the source; they are usually repeats but may differ in a detail not shown here. Equal values may be shown once. Read-outs that look alike come from different tables or passages of the source.
# Columns and labels:
# [1] = system: norepinephrine (NE) in medial prefrontal cortex; experiment: Brain microdialysis: norepinephrine in mPFC; type: in vivo, rats; details: 25 mg/kg zonisamide
# Source text: (§1) 62 adult Sprague-Dawley male rats (Harland, Indianapolis) weighing 300-350 g were used in the following studies. The rats were quarantined for at least five days in group housing. Following the quarantine procedure, rats were maintained in individual cages. For surgical implantation with intracerebral guides, guides were inserted directly above either the hypothalamus (HT) (31 rats), or the medial prefrontal cortex (mPFC) (31 rats). Stereotaxic coordinates (Paxinos and Watson, 1986) provided below were used to position the guide cannulae and/or probes: Animals were anesthetiszed according using standard procedures. The head of each animal was shaved from the front of the eyes to the back of the skull. Shaved areas were disinfected, and the animals were placed in stereotaxic frame ear bars. The animal was aligned with the incisor bar. The animal's scalp was cut with a sharp #15 scalpel blade. If the bone began to bleed, bone wax was applied to the incision. Periosteal tissue was cleaned from the skull to the lateral ridges with a cotton swab, and clamps were used to pull the skin out of the way. The probe or guide was placed in the clamp, such that the angled outlet cannula of the microdialysis probe was angled towards the animal's tail. The target coordinates were calculated, and this point was marked on the skull. Two holes in opposing skull bones were drilled for bone anchor screws and thread screws. The dura was torn away with a sharp, pointed object. The guide cannulae were placed at the dorsal/ventral zero point. […] Using dental acrylic, the cannulae were cemented to the bone anchor screws. The cement was allowed to harden and the rodent was removed from the stereotaxic frame. The cranial and caudal aspects of the incision were sutured. The animals were allowed to recover for three to five days. Stylets in the guides were replaced with dialysis probes on the evening prior to study to allow for animal acclimation and to reestablish the integrity of the blood brain barrier. […] Rats were weighed pre-surgery, every 1-2 days post-surgery until time of microdialysis, and postmortem. Microdialysis probes used in the experiments described below were first soaked in standard Ringer's perfusion medium for 30 minutes. Inlet and outlet tubing was connected to each probe using flanged connectors. The outlet tubing was connected to a fraction collector, and the inlet was connected to and […] syringe drive. The probes were immersed in fresh Ringer's solution and flushed with Ringer's perfusion medium at a rate of 2 μl/min for 1 hour. The probe was then transferred to the intracerebral guide on the rat's skull. […] Water was added to obtain a final concentration of 0.3 mg/ml. […] Zonisamide was dissolved in DMSO. […] The final concentration of zonisamide was 7.5 mg/ml. The drug solution was maintained at 37° C. prior to injection. The rats were divided into ten test groups. Five animals were analyzed for each test group. The test groups were as follows: For the microdialysis experiments, perfusion consisted of 2 μl/min delivery of sterile standard Ringer's solution for intervals of 20 minutes. Final collection volumes were 40 μl. 30 μl samples were analyzed for each analyte: DA, NE, 5HT. 12 pre-dose samples and 12 post dose samples were collected every 20 minutes for a duration of 4 hours, both pre-dose and post-dose. Six samples from the pre-dose and post-dose collections were analyzed for norepinephrine. The remaining six samples from the pre-dose and post-dose collections were analyzed for both dopamine and serotonin. Samples were chilled to -80° C. immediately following collection. The samples were analyzed using liquid chromatography with electrochemical detection using conventional techniques. See, e.g., Huang, T., R. et al. (1994) New […] Microbore Columns for Liquid Chromatography. Current Separations 12(4): 191-195. […] Concentrations of each compound are expressed as % baseline.
# [2] = system: serotonin (5HT) in medial prefrontal cortex; experiment: Brain microdialysis: serotonin in mPFC; type: in vivo, rats; details: 25 mg/kg zonisamide
# Source text: as §1
# [3] = system: dopamine (DA) in medial prefrontal cortex; experiment: Brain microdialysis: dopamine in mPFC; type: in vivo, rats; details: 25 mg/kg zonisamide
# Source text: as §1
# [4] = system: norepinephrine (NE) in hypothalamus; experiment: Brain microdialysis: norepinephrine in hypothalamus; type: in vivo, rats; details: 25 mg/kg zonisamide
# Source text: as §1
# [5] = system: psychotic patients (bipolar manic state, schizoaffective manic state, schizophrenic excitement); details: cited from earlier work; for patients showing remarkable global improvement: addition of zonisamide
# [6] = patients presenting with primary obesity; cited from earlier work
# [7] = system: serotonin (5HT) in hypothalamus; experiment: Brain microdialysis: serotonin in hypothalamus; type: in vivo, rats; details: 25 mg/kg zonisamide
# Source text: as §1
# [8] = system: dopamine (DA) in hypothalamus; experiment: Brain microdialysis: dopamine in hypothalamus; type: in vivo, rats; details: 25 mg/kg zonisamide
# Source text: as §1
# carbonic anhydrase = details: cited from earlier work
compound,measurement,setting,value
NS(=O)(=O)Cc1noc2ccccc12 [zonisamide],Norepinephrine concentrations in mPFC,[1]; 3 HOUR AVE,114.112 % baseline and 114.142 % baseline
same,Norepinephrine concentrations in mPFC,[1]; 20 min post dose,164.376 % baseline
same,Norepinephrine concentrations in mPFC,[1]; 60 min post dose,102.033 % baseline
same,Norepinephrine concentrations in mPFC,[1]; 100 min post dose,105.920 % baseline
same,Norepinephrine concentrations in mPFC,[1]; 140 min post dose,102.114 % baseline
same,Norepinephrine concentrations in mPFC,[1]; 180 min post dose,115.233 % baseline
same,Norepinephrine concentrations in mPFC,[1]; 220 min post dose,95.176 % baseline
same,Norepinephrine concentrations in mPFC,[1]; -40 min pre dose,101.451 % baseline
same,Norepinephrine concentrations in mPFC,[1]; -80 min pre dose,106.249 % baseline
same,Norepinephrine concentrations in mPFC,[1]; -120 min pre dose,92.300 % baseline
same,Serotonin concentrations in mPFC,[2]; 3 HOUR AVE,77.954 % baseline and 77.9543 % baseline
same,Serotonin concentrations in mPFC,[2]; 40 min post dose,96.932 % baseline
same,Serotonin concentrations in mPFC,[2]; 80 min post dose,74.461 % baseline
same,Serotonin concentrations in mPFC,[2]; 120 min post dose,60.557 % baseline
same,Serotonin concentrations in mPFC,[2]; 160 min post dose,82.729 % baseline
same,Serotonin concentrations in mPFC,[2]; 200 min post dose,89.529 % baseline
same,Serotonin concentrations in mPFC,[2]; 240 min post dose,63.518 % baseline
same,Serotonin concentrations in mPFC,[2]; -20 min pre dose,107.652 % baseline
same,Serotonin concentrations in mPFC,[2]; -60 min pre dose,119.648 % baseline
same,Serotonin concentrations in mPFC,[2]; -100 min pre dose,72.700 % baseline
same,Dopamine concentrations in mPFC,[3]; 3 HOUR AVE,117.183 % baseline
same,Dopamine concentrations in mPFC,[3]; 40 min post dose,166.688 % baseline
same,Dopamine concentrations in mPFC,[3]; 80 min post dose,86.224 % baseline
same,Dopamine concentrations in mPFC,[3]; 120 min post dose,111.764 % baseline
same,Dopamine concentrations in mPFC,[3]; 160 min post dose,109.627 % baseline
same,Dopamine concentrations in mPFC,[3]; 200 min post dose,94.060 % baseline
same,Dopamine concentrations in mPFC,[3]; 240 min post dose,134.732 % baseline
same,Dopamine concentrations in mPFC,[3]; -20 min pre dose,98.672 % baseline
same,Dopamine concentrations in mPFC,[3]; -60 min pre dose,87.652 % baseline
same,Dopamine concentrations in mPFC,[3]; -100 min pre dose,113.677 % baseline
same,Norepinephrine concentrations in hypothalamus,[4]; 3 HOUR AVE,124.221 % baseline and 124.272 % baseline
same,Norepinephrine concentrations in hypothalamus,[4]; 20 min post dose,194.380 % baseline
same,Norepinephrine concentrations in hypothalamus,[4]; 60 min post dose,151.267 % baseline
same,Norepinephrine concentrations in hypothalamus,[4]; 100 min post dose,101.287 % baseline
same,Norepinephrine concentrations in hypothalamus,[4]; 140 min post dose,99.489 % baseline
same,Norepinephrine concentrations in hypothalamus,[4]; 180 min post dose,102.237 % baseline
same,Norepinephrine concentrations in hypothalamus,[4]; 220 min post dose,91.722 % baseline
same,Norepinephrine concentrations in hypothalamus,[4]; -40 min pre dose,111.356 % baseline
same,Norepinephrine concentrations in hypothalamus,[4]; -80 min pre dose,88.184 % baseline
same,Norepinephrine concentrations in hypothalamus,[4]; -120 min pre dose,100.460 % baseline
same,patients showing remarkable global improvement,[5]; all the patients (24),Approximately 25%
same,patients with more than moderate global improvement,[5]; all the patients (24),Approximately 71%
same,patients with more than moderate global improvement,[5]; bipolar group,~80%
same,patients showing remarkable global improvement,[5]; bipolar manic patients,~33%
same,weight loss,[6],significant weight loss
same,Serotonin concentrations in hypothalamus,[7]; 3 HOUR AVE,96.664 % baseline and 96.6637 % baseline
same,Serotonin concentrations in hypothalamus,[7]; 40 min post dose,139.708 % baseline
same,Serotonin concentrations in hypothalamus,[7]; 80 min post dose,88.171 % baseline
same,Serotonin concentrations in hypothalamus,[7]; 120 min post dose,87.586 % baseline
same,Serotonin concentrations in hypothalamus,[7]; 160 min post dose,64.925 % baseline
same,Serotonin concentrations in hypothalamus,[7]; 200 min post dose,98.920 % baseline
same,Serotonin concentrations in hypothalamus,[7]; 240 min post dose (Table 7),100.672 % baseline
same,Serotonin concentrations in hypothalamus,[7]; +220 min post dose,100.672 % baseline
same,Serotonin concentrations in hypothalamus,[7]; -20 min pre dose,133.061 % baseline
same,Serotonin concentrations in hypothalamus,[7]; -60 min pre dose,79.388 % baseline
same,Serotonin concentrations in hypothalamus,[7]; -100 min pre dose,87.552 % baseline
same,Dopamine concentrations in hypothalamus,[8]; 3 HOUR AVE,104.3854 % baseline and 105.438 % baseline
same,Dopamine concentrations in hypothalamus,[8]; 40 min post dose,121.635 % baseline
same,Dopamine concentrations in hypothalamus,[8]; 80 min post dose,72.946 % baseline
same,Dopamine concentrations in hypothalamus,[8]; 120 min post dose,91.707 % baseline
same,Dopamine concentrations in hypothalamus,[8]; 160 min post dose,66.181 % baseline
same,Dopamine concentrations in hypothalamus,[8]; 200 min post dose,143.010 % baseline
same,Dopamine concentrations in hypothalamus,[8]; 240 min post dose,123.012 % baseline
same,Dopamine concentrations in hypothalamus,[8]; -20 min pre dose,142.394 % baseline
same,Dopamine concentrations in hypothalamus,[8]; -60 min pre dose,56.252 % baseline
same,Dopamine concentrations in hypothalamus,[8]; -100 min pre dose,101.354 % baseline
same,inhibitory effect on carbonic anhydrase,carbonic anhydrase,weak inhibitory effect
